Test results reported in patent publication US6617340B1, “N-(substituted glycyl)-pyrrolidines, pharmaceutical compositions containing them and their use in inhibiting dipeptidyl peptidase-IV” (Novartis AG, priority 1999, dated 2003).

Columns and labels:
[1] = biological target: T1, DPP-IV activity from human colonic carcinoma cell extracts (Caco-2) (Homo sapiens, UniProt P27487); experiment: Caco-2 DPP-IV Assay; type: biochemical; conditions: Caco-2 cell extract, substrate H-Alanine-Proline-pNA
T1 construct: Cell extract is prepared from cells solubilized in 10 mM Tris-HCl, 0.15 M NaCl, 0.04 t.i.u. aprotinin, 0.5% nonidet-P40; host or cells: Caco-2 (differentiated), NP-40 solubilized extract
T1 sequence (P27487 whole entry): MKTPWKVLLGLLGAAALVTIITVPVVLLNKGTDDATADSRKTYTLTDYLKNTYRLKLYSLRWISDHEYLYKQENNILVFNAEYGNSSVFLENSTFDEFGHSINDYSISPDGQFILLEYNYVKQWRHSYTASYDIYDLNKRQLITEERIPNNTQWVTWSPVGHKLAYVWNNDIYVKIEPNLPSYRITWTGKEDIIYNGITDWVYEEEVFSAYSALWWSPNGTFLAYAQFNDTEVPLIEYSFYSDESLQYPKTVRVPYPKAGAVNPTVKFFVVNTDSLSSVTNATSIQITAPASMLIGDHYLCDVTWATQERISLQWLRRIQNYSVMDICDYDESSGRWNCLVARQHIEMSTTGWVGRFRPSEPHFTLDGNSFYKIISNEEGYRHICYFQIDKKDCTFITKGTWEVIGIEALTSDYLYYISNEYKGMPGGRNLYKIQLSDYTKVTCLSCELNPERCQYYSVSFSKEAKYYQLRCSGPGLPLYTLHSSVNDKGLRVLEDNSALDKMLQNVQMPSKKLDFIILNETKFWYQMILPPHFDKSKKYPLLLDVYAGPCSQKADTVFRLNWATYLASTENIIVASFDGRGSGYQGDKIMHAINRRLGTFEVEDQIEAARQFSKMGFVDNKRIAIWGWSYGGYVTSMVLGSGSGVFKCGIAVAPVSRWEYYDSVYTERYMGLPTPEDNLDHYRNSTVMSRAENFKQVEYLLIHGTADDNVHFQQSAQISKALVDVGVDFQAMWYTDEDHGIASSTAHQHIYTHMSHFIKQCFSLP
Protocol: The human colonic carcinoma cell line Caco-2 was obtained from the American Type Culture Collection (ATCC HTB 37). Differentiation of the cells to induce DPP-IV expression was accomplished as described by Reisher, et al. in an article entitled “Increased expression of . . . intestinal cell line Caco-2” in Proc. Natl. Acad. Sci., Vol. 90, pgs. […] Cell extract is prepared from cells solubilized in 10 mM Tris-HCl, 0.15 M NaCl, 0.04 t.i.u. aprotinin, 0.5% nonidet-P40, pH 8.0, which is centrifuged at 35,000 g for 30 min. at 4° C. to remove cell debris. The assay is conducted by adding 20 μg solubilized Caco-2 protein, diluted to a final volume of 125 μl in assay buffer (25 mM Tris-HCl pH 7.4, 140 mM NaCl, 10 mM KCl, 1% bovine serum albumin) to microtiter plate wells. The reaction is initiated by adding 25 μl of 1 mM substrate (H-Alanine-Proline-pNA; pNA is p-nitroaniline). The reaction is run at room temperature for 10 minutes after which time a 19 μl volume of 25% glacial acetic acid is added to stop the reaction. […] A standard curve of free p-nitroaniline is generated using 0-500 μM solutions of free pNA in assay buffer. The curve generated is linear and is used for interpolation of substrate consumption (catalytic activity in nmoles substrate cleaved/min). […] The potency of the test compounds as DPP-IV inhibitors, expressed as IC50, is calculated from 8-point, dose-response curves using a 4-parameter logistic function.

[2] = biological target: T2, DPP-IV activity in human plasma (Homo sapiens, UniProt P27487); experiment: human plasma DPP-IV assay; type: biochemical; conditions: substrate H-Glycine-Proline-AMC
T2 construct: from tissue; host or cells: human plasma
T2 sequence (P27487 39-766 limits assumed): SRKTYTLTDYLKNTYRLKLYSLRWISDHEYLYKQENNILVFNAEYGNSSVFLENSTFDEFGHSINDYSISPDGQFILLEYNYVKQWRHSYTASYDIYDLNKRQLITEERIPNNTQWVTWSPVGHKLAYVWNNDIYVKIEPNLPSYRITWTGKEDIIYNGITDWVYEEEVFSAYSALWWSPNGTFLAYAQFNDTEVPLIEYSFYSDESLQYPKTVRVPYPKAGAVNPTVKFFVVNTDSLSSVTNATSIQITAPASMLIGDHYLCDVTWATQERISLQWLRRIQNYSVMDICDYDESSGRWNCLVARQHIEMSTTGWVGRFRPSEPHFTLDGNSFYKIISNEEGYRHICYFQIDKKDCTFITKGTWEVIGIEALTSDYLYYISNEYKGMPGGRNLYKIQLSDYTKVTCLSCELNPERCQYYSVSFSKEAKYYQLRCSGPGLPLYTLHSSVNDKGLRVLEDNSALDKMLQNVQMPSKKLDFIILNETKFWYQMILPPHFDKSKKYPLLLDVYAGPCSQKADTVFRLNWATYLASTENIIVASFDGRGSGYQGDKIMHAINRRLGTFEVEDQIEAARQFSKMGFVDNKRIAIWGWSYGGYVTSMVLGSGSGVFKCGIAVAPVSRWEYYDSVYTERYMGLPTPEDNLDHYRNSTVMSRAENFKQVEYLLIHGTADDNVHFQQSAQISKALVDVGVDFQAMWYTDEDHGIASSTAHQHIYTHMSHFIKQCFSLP
Protocol: (§1) Briefly, five μl of plasma are added to 96-well flat-bottom mictotiter plates (Falcon), followed by the addition of 5 μl of 80 mM MgCl2 in incubation buffer (25 mM HEPES, 140 mM NaCl, 1% RIA-grade BSA, pH 7.8). After a 5 min. incubation at room temperature, the reaction is initiated by the addition of 10 μl of incubation buffer containing 0.1 mM substrate (H-Glycine-Proline-AMC; AMC is 7-amino-4-methylcoumarin). The plates are covered with aluminum foil (or kept in the dark) and incubated at room temperature for 20 min. […] A fluorescence-concentration curve of free AMC is generated using 0-50 μM solutions of AMC in assay buffer. The curve generated is linear and is used for interpolation of substrate consumption (catalytic activity in nmoles substrate cleaved/min). As with the previous assay, the potency of the test compounds as DPP-IV inhibitors, expressed as IC50, is calculated from 8-point, dose-response curves using a 4 parameter logistic function.

[3] = biological target: T3, DPP-IV activity in rat plasma (Rattus norvegicus, UniProt P14740); experiment: rat plasma DPP-IV assay; type: biochemical; conditions: substrate H-Glycine-Proline-AMC
T3 construct: from tissue; host or cells: rat plasma
T3 sequence (P14740 37-767 limits assumed): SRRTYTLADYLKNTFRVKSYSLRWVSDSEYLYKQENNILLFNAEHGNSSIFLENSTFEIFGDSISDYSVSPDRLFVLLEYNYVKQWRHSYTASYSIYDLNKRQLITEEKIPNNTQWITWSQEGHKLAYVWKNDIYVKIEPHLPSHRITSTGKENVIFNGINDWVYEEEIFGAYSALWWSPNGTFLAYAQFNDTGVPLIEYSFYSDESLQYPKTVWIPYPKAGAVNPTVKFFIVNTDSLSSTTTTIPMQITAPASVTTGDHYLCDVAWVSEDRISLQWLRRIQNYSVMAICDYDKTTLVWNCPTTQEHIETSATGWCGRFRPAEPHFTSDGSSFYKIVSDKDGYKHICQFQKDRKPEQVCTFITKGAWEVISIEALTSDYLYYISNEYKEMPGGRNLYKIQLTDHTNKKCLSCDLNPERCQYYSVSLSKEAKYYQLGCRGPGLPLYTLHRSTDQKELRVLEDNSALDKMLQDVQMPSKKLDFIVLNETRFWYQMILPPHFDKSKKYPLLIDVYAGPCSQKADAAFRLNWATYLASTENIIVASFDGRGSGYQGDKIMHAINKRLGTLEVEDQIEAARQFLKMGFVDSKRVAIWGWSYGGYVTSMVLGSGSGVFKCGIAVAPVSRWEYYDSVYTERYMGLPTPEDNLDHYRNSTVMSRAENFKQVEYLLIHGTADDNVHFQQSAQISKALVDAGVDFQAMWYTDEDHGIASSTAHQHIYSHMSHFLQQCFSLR
Protocol: as §1

| IC50 [1] [µM] | IC50 [2] [µM] | IC50 [3] [µM] | melting point [°C] | SMILES |
| --- | --- | --- | --- | --- |
| 5.5 | 15.9 | 9.3 | – | O=C(CNCCNc1ccc(Cl)cn1)N1CCCC1 [Ex. 1, 1-[2-[(5-chloropyridin-2-yl)amino]ethylamino]acetylpyrrolidine] |
| 9.7 | 15.2 | 7.8 | 72 to 74 | O=C(CNC1(CO)CCCC1)N1CCCC1 [Ex. 2C, 1-[(1-hydroxymethylcyclopent-1-yl)amino]acetylpyrrolidine] |
| 6.4 | 9.4 | 22.9 | 98 to 100 | O=C(CNCCNc1ccccn1)N1CCCC1 [Ex. 2D, 1-[2-[(pyridin-2-yl)amino]ethylamino]acetylpyrrolidine] |
| 2.6 | 9.2 | 4.4 | 122 to 123 | N#Cc1ccc(NCCNCC(=O)N2CCCC2)nc1 [Ex. 2A, 1-[2-[(5-cyanopyridin-2-yl)amino]ethylamino]acetylpyrrolidine] |
| 27.5 | 45.8 | 28.4 | – | O=C(CNCCNc1ncccn1)N1CCCC1 [Ex. 2B] |
